“Also recorded” adds a separate entry of the source.
Legend:
[1] = biological target: T1, mutant GABRA1:GABRB2:GABRG2(R43Q) [α1β2γ2 (R43Q)] GABAA receptor (Homo sapiens, UniProt P14867+P18507+P47870, R82Q/T120M/T181S); assay: Diazepam potentiation of GABA currents, two-electrode voltage clamp in Xenopus laevis oocytes, R43Q mutant channels; type: cell-based; settings: for small, insignificant decrease in GABA current with diazepam, mean±SEM: GABA 1 μM, diazepam 1 μM, R43Q mutant channels, n=17, a decrease, not a potentiation
T1 construct: expressed in transfected cells; host or cells: Xenopus laevis oocytes (cRNA injection)
T1 sequence (P14867 28-456): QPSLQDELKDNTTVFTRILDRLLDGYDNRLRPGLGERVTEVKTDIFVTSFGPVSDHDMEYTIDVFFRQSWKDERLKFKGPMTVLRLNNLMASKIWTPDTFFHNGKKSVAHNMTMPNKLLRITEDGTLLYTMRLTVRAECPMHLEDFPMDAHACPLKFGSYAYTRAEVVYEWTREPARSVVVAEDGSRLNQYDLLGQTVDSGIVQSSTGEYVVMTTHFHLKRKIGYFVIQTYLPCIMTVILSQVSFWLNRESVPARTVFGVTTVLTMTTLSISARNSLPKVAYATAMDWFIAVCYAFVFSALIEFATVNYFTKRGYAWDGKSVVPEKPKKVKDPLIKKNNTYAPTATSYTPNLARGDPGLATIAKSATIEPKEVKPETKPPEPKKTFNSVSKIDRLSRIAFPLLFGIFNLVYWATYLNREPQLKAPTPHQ
T1 sequence (P47870 26-512): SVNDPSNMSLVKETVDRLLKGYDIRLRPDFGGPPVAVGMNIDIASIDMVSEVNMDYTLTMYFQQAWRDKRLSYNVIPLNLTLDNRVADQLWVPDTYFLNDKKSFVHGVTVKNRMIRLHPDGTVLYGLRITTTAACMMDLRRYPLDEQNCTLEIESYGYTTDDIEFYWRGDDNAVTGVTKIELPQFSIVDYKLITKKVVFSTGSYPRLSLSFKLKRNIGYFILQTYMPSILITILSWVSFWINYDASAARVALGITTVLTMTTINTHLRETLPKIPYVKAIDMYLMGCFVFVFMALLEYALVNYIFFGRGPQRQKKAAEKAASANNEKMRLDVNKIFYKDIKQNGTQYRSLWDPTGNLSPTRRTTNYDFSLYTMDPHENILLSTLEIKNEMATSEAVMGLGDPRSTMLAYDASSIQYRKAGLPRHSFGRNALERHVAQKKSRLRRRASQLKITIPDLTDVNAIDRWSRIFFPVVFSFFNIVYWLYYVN
T1 sequence (P18507 40-467 isoform P18507-1 R82Q/T120M/T181S): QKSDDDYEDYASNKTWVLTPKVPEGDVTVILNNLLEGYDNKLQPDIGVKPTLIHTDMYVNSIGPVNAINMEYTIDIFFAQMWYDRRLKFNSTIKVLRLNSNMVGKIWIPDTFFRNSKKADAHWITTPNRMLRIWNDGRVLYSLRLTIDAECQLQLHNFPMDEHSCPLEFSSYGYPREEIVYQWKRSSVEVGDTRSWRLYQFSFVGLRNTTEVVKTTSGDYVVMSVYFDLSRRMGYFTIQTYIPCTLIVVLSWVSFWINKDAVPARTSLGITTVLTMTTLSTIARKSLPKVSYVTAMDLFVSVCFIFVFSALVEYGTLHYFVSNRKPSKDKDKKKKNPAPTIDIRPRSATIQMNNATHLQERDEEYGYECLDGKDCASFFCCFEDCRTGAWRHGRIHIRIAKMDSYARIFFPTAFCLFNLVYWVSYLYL
Method: (§1) To test the effects of the GABRG2 mutations on GABAA receptor function, electrophysiological analysis of Xenopus laevis oocytes were conducted. cDNAs encoding the GABRA1, GABRB2 and GABRG2 subunits of the human GABAA receptor were subcloned into pcDNA3.1(+). The c245G→A and c1168C→T mutations were introduced separately into GABRG2 of the human GABAA receptor using the QuickChange site directed mutagenesis kit (Stratagene, La Jolla, Calif.). […] Successful mutagenesis was identified by DNA sequencing. Wild-type and mutant cDNAs were linearised and gel purified and cRNA was made using the T7 RNA polymerase Message Machine in vitro RNA synthesis kit (Ambion). Samples of cRNA were run on denaturing agarose gels to ensure they were the correct size and were not degraded. Xenopus laevis oocytes (stage V or VI) were microinjected with ˜25 ng of cRNA representing the GABAA subunits. A tenfold molar excess of wild-type and mutant GABRG2 was used to promote assembly of the ternary (GABRA1:GABRB2:GABRG2) rather than binary (GABRA1:GABRB2) complex. Oocytes were then stored in OR2 buffer (82.5 mM NaCl, 2 mM KCl, 1 mM MgCl2, 5 mM HEPES, pH 7.5, supplemented with 2% foetal bovine serum, 100 U/ml penicillin, 100 μg/ml streptomycin, Life Technologies) and incubated at 18° C. for three to five days to allow for adequate receptor expression. Current recordings from oocytes were made using a two-electrode voltage clamp (AxoClamp 2B, Axon Instruments), with recordings made at a holding potential of −80 mV. Electrodes were filled with 3 M KCl and were of 1–2 MΩ resistance. Oocytes were continuously perfused with ND96 solution (96 mM NaCl, 2 mM KCl, 1 mM MgCl2, 1.8 mM BaCl2 and 5 mM HEPES, pH 7.5). gamma-Aminobutyric acid (GABA; Sigma-Aldrich, Australia) was applied by bath perfusion.

[2] = biological target: T2, wild-type GABRA1:GABRB2:GABRG2 (α1β2γ2) GABAA receptor (Homo sapiens, UniProt P14867+P18507+P47870); assay: Diazepam potentiation of GABA currents, two-electrode voltage clamp in Xenopus laevis oocytes, wild-type channels; type: cell-based; settings: GABA 1 μM, diazepam 1 μM
T2 construct: expressed in transfected cells; host or cells: Xenopus laevis oocytes (cRNA injection)
T2 sequence (P18507 40-467 isoform P18507-1 limits assumed, one chain of several): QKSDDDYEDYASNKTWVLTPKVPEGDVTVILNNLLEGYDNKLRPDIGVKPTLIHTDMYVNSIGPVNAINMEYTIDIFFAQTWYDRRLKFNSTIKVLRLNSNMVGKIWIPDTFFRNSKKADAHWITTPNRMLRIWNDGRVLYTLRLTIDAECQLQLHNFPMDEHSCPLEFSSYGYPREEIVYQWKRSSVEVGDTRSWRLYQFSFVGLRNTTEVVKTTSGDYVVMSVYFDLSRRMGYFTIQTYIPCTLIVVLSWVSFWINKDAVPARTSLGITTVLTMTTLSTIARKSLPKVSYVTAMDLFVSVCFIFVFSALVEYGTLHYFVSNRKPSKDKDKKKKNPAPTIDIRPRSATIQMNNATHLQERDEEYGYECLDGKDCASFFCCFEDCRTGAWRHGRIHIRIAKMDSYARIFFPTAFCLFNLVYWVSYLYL
Method: as §1, with “Current recordings from oocytes were made using a two-electrode voltage clamp (AxoClamp 2B, Axon Instruments), with recordings made at a holding potential of −80 mV. Electrodes were filled with 3 M KCl and were of 1–2 MΩ resistance. Oocytes were continuously perfused with ND96 solution (96 mM NaCl, 2 mM KCl, 1 mM MgCl2, 1.8 mM BaCl2 and 5 mM HEPES, pH 7.5). gamma-Aminobutyric acid (GABA; Sigma-Aldrich, Australia) was applied by bath perfusion.” left out

[3] = tested on: GABAA receptor from 50:50 mixture of GABRG2 and GABRG2(R43Q); assay: Diazepam potentiation in oocytes injected with 50:50 mixture of GABRG2 and GABRG2(R43Q) cRNA; type: cell-based, human; settings: n=8
Method: as §1, with “Current recordings from oocytes were made using a two-electrode voltage clamp (AxoClamp 2B, Axon Instruments), with recordings made at a holding potential of −80 mV. Electrodes were filled with 3 M KCl and were of 1–2 MΩ resistance. Oocytes were continuously perfused with ND96 solution (96 mM NaCl, 2 mM KCl, 1 mM MgCl2, 1.8 mM BaCl2 and 5 mM HEPES, pH 7.5). gamma-Aminobutyric acid (GABA; Sigma-Aldrich, Australia) was applied by bath perfusion.” left out

[4] = biological target: T3, GABRA1:GABRB2:GABRG2 wild-type GABAA receptor (Homo sapiens, UniProt P14867+P18507+P47870); assay: GABA current response in Xenopus laevis oocytes, wild-type GABRG2; type: cell-based; settings: 1:1:10 ratio with wild-type GABRG2
T3 construct: expressed in transfected cells; host or cells: Xenopus laevis oocytes (cRNA injection)
T3 sequence (P18507 40-467 isoform P18507-1 limits assumed, one chain of several): as above
Method: (§2) To test the effects of the GABRG2 mutations on GABAA receptor function, electrophysiological analysis of Xenopus laevis oocytes were conducted. cDNAs encoding the GABRA1, GABRB2 and GABRG2 subunits of the human GABAA receptor were subcloned into pcDNA3.1(+). The c245G→A and c1168C→T mutations were introduced separately into GABRG2 of the human GABAA receptor using the QuickChange site directed mutagenesis kit (Stratagene, La Jolla, Calif.). The oligonucleotide represented by SEQ ID NO:50 (5′ GGATATGACAATAAACTTCAGCCTGATATAGGAGTGAAGCC 3′) was used to incorporate the c245G→A mutation, while the oligonucleotide represented by SEQ ID NO:51 (5′ GCGAATTCATTAAATGGTTGCTGATCTTGGGCG 3′) was used to incorporate the c1168C→T mutation. Successful mutagenesis was identified by DNA sequencing. Wild-type and mutant cDNAs were linearised and gel purified and cRNA was made using the T7 RNA polymerase Message Machine in vitro RNA synthesis kit (Ambion). Samples of cRNA were run on denaturing agarose gels to ensure they were the correct size and were not degraded. Xenopus laevis oocytes (stage V or VI) were microinjected with ˜25 ng of cRNA representing the GABAA subunits. A tenfold molar excess of wild-type and mutant GABRG2 was used to promote assembly of the ternary (GABRA1:GABRB2:GABRG2) rather than binary (GABRA1:GABRB2) complex. […]

[5] = biological target: T4, GABAA receptor containing GABRG2(R43Q) (Homo sapiens, UniProt P14867+P18507+P47870, R82Q/T120M/T181S); assay: GABA electrophysiological response in Xenopus oocytes, GABRG2(R43Q); type: cell-based; settings: oocytes expressing GABRG2 or GABRG2(R43Q)
T4 construct: expressed in transfected cells; host or cells: Xenopus laevis oocytes (cRNA injection)
T4 sequence (P14867 28-456): T1 sequence (P14867 28-456)
T4 sequence (P47870 26-512): T1 sequence (P47870 26-512)
T4 sequence (P18507 40-467 isoform P18507-1 R82Q/T120M/T181S): T1 sequence (P18507 40-467 isoform P18507-1 R82Q/T120M/T181S)
Method: as §2

[6] = tested on: GABRA1:GABRB2:GABRG2(Q351X) GABAA receptor; assay: GABA current response in Xenopus laevis oocytes, Q351X mutant; type: cell-based, human; settings: 1:1:10 GABRA1:GABRB2:GABRG2(Q351X) cRNA injection ratio
Method: as §2

[7] = biological target: T5, GABRA1:GABRB2 GABAA receptor (Homo sapiens, UniProt P14867+P47870); assay: GABA current response in Xenopus laevis oocytes, GABRA1:GABRB2:water; type: cell-based; settings: 1:1:10 GABRA1:GABRB2:water injection ratio
T5 construct: expressed in transfected cells; host or cells: Xenopus laevis oocytes (cRNA injection)
T5 sequence (P14867 28-456): T1 sequence (P14867 28-456)
T5 sequence (P47870 26-512): T1 sequence (P47870 26-512)
Method: as §2

[8] = biological target: T6, wild-type (α1β2γ2) GABAA receptor (Homo sapiens, UniProt P14867+P18507+P47870); parameters: expressed in transfected cells; settings: correct assembly of GABRA1, GABRB2 and GABRG2; Draguhn et al, 1990; cited from earlier work
T6 sequence (P18507 40-467 isoform P18507-1 limits assumed, one chain of several): as the sequence (P18507 40-467 isoform P18507-1 limits assumed, one chain of several) above

[9] = biological target: T7, GABRA1 and GABRB2 (α1β2) GABAA receptor (Homo sapiens, UniProt P14867+P47870); assay: Zn2+ sensitivity of GABA-activated currents in Xenopus laevis oocytes, GABRA1 and GABRB2 alone; type: cell-based; parameters: expressed in transfected cells; host or cells: Xenopus laevis oocytes (cRNA injection)
T7 sequence (P14867 28-456): T1 sequence (P14867 28-456)
T7 sequence (P47870 26-512): T1 sequence (P47870 26-512)
Method: as §2

[10] = biological target: T8, mutant [α1β2γ2 (R43Q)] GABAA receptor (Homo sapiens, UniProt P14867+P18507+P47870, R82Q/T120M/T181S); assay: Zn2+ sensitivity of GABA-activated currents in Xenopus laevis oocytes, R43Q mutant channels; type: cell-based
T8 construct: expressed in transfected cells; host or cells: Xenopus laevis oocytes (cRNA injection)
T8 sequence (P14867 28-456): T1 sequence (P14867 28-456)
T8 sequence (P47870 26-512): T1 sequence (P47870 26-512)
T8 sequence (P18507 40-467 isoform P18507-1 R82Q/T120M/T181S): T1 sequence (P18507 40-467 isoform P18507-1 R82Q/T120M/T181S)
Method: as §2

[11] = biological target: T7, GABRA1 and GABRB2 (α1β2) GABAA receptor; parameters: expressed in transfected cells; settings: GABRA1 and GABRB2 alone; Draguhn et al, 1990; cited from earlier work
[12] = biological target: T6, wild-type (α1β2γ2) GABAA receptor; assay: Zn2+ sensitivity of GABA-activated currents in Xenopus laevis oocytes, wild-type channels; type: cell-based; parameters: expressed in transfected cells; host or cells: Xenopus laevis oocytes (cRNA injection); settings: Zn2+ 10 μM, n=9
Method: as §2

For `CN1C(=O)CN=C(c2ccccc2)c2cc(Cl)ccc21` [diazepam], the “small, insignificant decrease in GABA current with diazepam, mean±SEM” value [1] was 10±6%, the “small, insignificant decrease in GABA current with diazepam, mean±SEM” value ([1]; listed as Diazepam) was 10%±6 and the “diazepam potentiation” value ([1]; receptors containing the GABRG2(R43Q) subunit) was “completely abolished”. For the same compound, the “increase of GABA currents by diazepam (potentiation), mean±SEM” value ([2]; n=20, P<0.01) was 303±33%, the “increase of GABA currents by diazepam (potentiation), mean±SEM” value ([2]; n=20, P<0.01, listed as Diazepam) was 302±33% and the intermediate diazepam potentiation [3] was 129±30%.

For `NCCCC(=O)O` [GABA, gamma-Aminobutyric acid], the “current response to GABA” value [4] was “strong current responses”, the “electrophysiological responses to GABA versus wild-type GABRG2” value [5] was “indistinguishable” and the “current response to GABA” value [6] was “abolishes responses to GABA; also recorded: no current response”. For the same compound, the “current response to GABA” value [7] was “gave current responses”.

For `[Zn+2]` [Zn^2+], the “sensitivity of currents to Zn2+” value [8] is listed as “significantly less sensitive”, the “GABA-activated current abolished by Zn2+” value ([9]; Zn2+ 10 μM, GABA 100 μM, α1β2 alone, n=8) is listed as 89±7% and the “effect of Zn2+ on GABA-activated currents” value ([9]; oocytes expressing only GABRA1 and GABRB2) is listed as “totally abolished”. The “effect of Zn2+ compared with wild-type GABRG2” value ([10]; GABRG2(R43Q) versus GABRG2 expressing oocytes) was “same effect”, the “partial inhibition of the GABA current by Zn2+” value ([10]; Zn2+ 10 μM, R43Q mutant, n=9) was 40±5% and the “sensitivity of currents to Zn2+” value [11] was “extremely sensitive”. For the same compound, the “partial inhibition of the GABA current by Zn2+” value [12] was 37±2%.

From patent US7157569B2, “Mutation associated with epilepsy” (Bionomics Limited, priority 2000, dated 2007)
